We go through one compound from PMC11587516 (ACS Chemical Neuroscience, 2024).

Where a chain is given by its changes, count along the chain named. Like-named read-outs stand apart in the source and are kept apart here.

The subject of test [1] is normal human astrocytes (NHA). Briefly: Confocal imaging of astrocyte morphology after incubation in PBS (non-GABA conditions). The format is cell-based. To be noted: 500 μM in PBS, non-GABA environment; 72 h. Here is the method:
To this end, we tested whether blocking the transport of GABA under experimental non-GABA extracellular conditions may impair the homeostasis of these cells. […] Afterward, the cells were stained to visualize actin filaments using confocal microscopy. […] Nevertheless, further kinetic studies are necessary to verify this hypothesis.
NHA was grown on a coverslip in a 35 mm culture dish. After treatment, the cells were fixed (4% paraformaldehyde) and permeabilized (0.1% Triton X-100). Then, the samples were stained with Phalloidin-Atto 565 (Sigma-Aldrich, Inc.) according to the manufacturer’s protocol. Laser confocal microscope Nikon Eclipse Ti-E A1R-Si and Nikon NIS Elements AR software were used for cell imaging.

Test [2] addresses T1, hBGT1 E52A (Homo sapiens, UniProt P48065, E52A).
T1 construct: host or cells: tsA201 cells (transformed HEK293), transient expression
T1 sequence (P48065 1-614 E52A): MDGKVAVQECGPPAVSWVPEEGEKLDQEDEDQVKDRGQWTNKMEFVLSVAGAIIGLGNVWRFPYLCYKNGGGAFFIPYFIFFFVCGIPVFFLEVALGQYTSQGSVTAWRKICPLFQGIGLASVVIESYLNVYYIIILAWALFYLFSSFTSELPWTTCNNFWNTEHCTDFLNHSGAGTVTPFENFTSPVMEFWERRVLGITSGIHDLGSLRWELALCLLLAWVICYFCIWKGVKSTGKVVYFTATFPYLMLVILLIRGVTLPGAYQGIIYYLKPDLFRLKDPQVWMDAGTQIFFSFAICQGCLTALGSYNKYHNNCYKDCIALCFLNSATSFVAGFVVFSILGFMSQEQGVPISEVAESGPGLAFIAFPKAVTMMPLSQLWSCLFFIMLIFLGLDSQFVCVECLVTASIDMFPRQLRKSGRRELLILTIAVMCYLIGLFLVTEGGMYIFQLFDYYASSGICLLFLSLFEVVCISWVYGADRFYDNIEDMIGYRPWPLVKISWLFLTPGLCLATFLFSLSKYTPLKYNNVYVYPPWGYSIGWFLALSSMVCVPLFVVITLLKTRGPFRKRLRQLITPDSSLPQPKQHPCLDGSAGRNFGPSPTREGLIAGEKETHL
Briefly: [3H]GABA uptake assay, hBGT1 mutant E52A in tsA201 cells. The test is classed as cell-based. As for the experimental part: To validate the molecular modeling, particularly the crucial interactions with the Glu52 and Gln299 residues, the activity of compound 9 was tested on the following hBGT1 mutants: E52A, E52Y, Q299L, and the double mutant E52A+Q299L (Figure 5 and Table 1).[14]
(§1) The CHO cells were placed in 96-well plates (approximately 50,000 cells/well) for about 24 h before the experiment. […] After incubation, cells were washed 3 times with 100 μL/well ice-cold assay buffer, 150 μL/well MicroScint20 (PerkinElmer) was subsequently added before the plate was shaken for at least 1 h. The radioactivity of each well of the plate was measured on a TopCount NXT scintillation counter. […] Data presented are the pooled data of at least three independent experiments with three technical replicates if not stated otherwise in figure legends. Concentration–response curves were fitted by nonlinear regression to the sigmoidal concentration–response model with GraphPad Prism v 9.0.
The tsA201 cell line (a transformed HEK293 cell line) has been described previously and was cultured accordingly.[20] The tsA201 cells used for transient expression of hBGT1 mutants were transfected with DNA constructs (8 μg per 10 cm plate) using 40 μL of PolyFect transfection reagent according to the manufacturer’s protocol (Qiagen). […]

The target of test [3] is T2, hBGT1 (Homo sapiens, UniProt P48065).
T2 construct: expressed in transfected cells
T2 sequence (P48065 1-614): T1 sequence (P48065 1-614 E52A) with A52E
Put plainly: [3H]GABA uptake assay, CHO cells stably expressing hBGT1. The format is cell-based. As for the experimental part:
All selected compounds were tested for their ability to inhibit human BGT1 (hBGT1) function.
as §1

The test system of test [4] is SH-SY5Y neuroblastoma cells. To be noted: 1 mM MPP+, 24 h. Here is the method: The model used mimics certain aspects of neurodegenerative diseases, where GABAergic dysfunction and neuronal death are prominent features. […] The neuroprotection studies were performed to determine the ability of compound 9 to prevent MPP^+ (1-methyl-4-phenylpyridinium) toxicity at a concentration of 1 mM, which was coincubated with compound 9 for 24 h. MPP^+ is a well-established neurotoxin that selectively damages neurons, making it a commonly used agent to model aspects of neurodegenerative conditions in vitro. It induces oxidative stress and mitochondrial dysfunction, leading to cell death. Cell viability was detected by a standard MTS assay.
Neuroprotection studies were performed according to the procedure described previously.[27] In brief, SH-SY5Y CRL-2266 (American Type Culture Collection, Manassas, VG) were seeded in microplate at a concentration of 2.5 × 10^4 cells/well in 100 μL of culture medium and cultured for 24 h at 37 °C and 5% CO2. […] Next, MPP^+ was added at a final concentration of 1 mM and the cells were placed in the incubator. After 24 h of the compound coincubation with MPP^+, the CellTiter 96 AQueous Nonradioactive Cell Proliferation Assay (MTS) was performed. The test was purchased from Promega (Madison, WI). The absorbance was measured using a microplate reader EnSpire (PerkinElmer, Waltham, MA) at 490 nm. All results were shown as mean ± SD. The statistical significances were calculated by GraphPad Prism 6.0 software.

In the case of `NC12CC(C(=O)O)(C1)C2` [Compound 9], in test [1], the “astrocyte morphology (actin staining)” value was “cell shrinkage and a loss of cell-to-cell contact”. The IC50 in test [2] was 64.2 µM; in test [3] it was 13.9 µM. Also, the “decrease in activity compared with wild type hBGT1” value in test [2] (E52A vs wt) is ~2 fold. Moreover, in test [3] (CHO, read-out: inhibition of [3H]GABA uptake), the inhibition at 100 µM stood at 81%. Further, the “preference for hBGT1 over hGAT3” value in test [3] (ratio of IC50 values) is recorded as “over 4 fold”. Also, the figures for the “cell viability compared to MPP+ alone” value in test [4] (10 μM) and in test [4] (50 μM) were “increased cell viability” and “significantly increased cell viability”, respectively.
